According to patent US10440955B2, “Methods comprising a biocidal polyamine” (Curza Global, LLC, priority 2013, dated 2019):
≈ marks a conversion by molar mass, not a printed value. Counter-ions that a name gives are not always drawn. Like-named read-outs stand apart in the source and are kept apart here.

Columns and labels:
L-929 cells (ATCC CCL-1) = assay: Minimal Essential Media (MEM) Elution cytotoxicity test; assay type: cell-based; conditions: Table 11A
Procedure: Summary: The Minimal Essential Media (MEM) Elution test was designed to determine the cytotoxicity of extractable substances. The test article was added to cell monolayers and incubated. The cell monolayers were examined and scored based on the degree of cellular destruction.
Acceptance Criteria: The United States Pharmacopeia & National Formulary (USP <87>) states that the test article meets the requirements, or receives a passing score (Pass) if the reactivity grade is not greater than grade 2 or a mild reactivity.
Acceptance criteria were based upon the negative and media controls receiving “0” reactivity grades and positive controls receiving a 3-4 reactivity grades (moderate to severe).
The cell monolayers were examined microscopically. The wells were scored as to the degree of discernable morphological cytotoxicity on a relative scale of 0 to 4:
The results from the three wells were averaged to give a final cytotoxicity score.
[…] This initial concentration was then diluted 1: 2, 1:4, 1:8, and 1:16. Multiple well cell culture plates were seeded with a verified quantity of industry standard L-929 cells (ATCC CCL-1) and incubated until approximately 80% confluent. The test articles and control extracts were added to the cell monolayers in triplicate. The cells were incubated at 37±1° C. with 5±1% CO2 for 48±3 hours.

MRSA = assay: MIC, 96-well CAMHB, 10^5 to 10^2 CFU/mL in 24 hours; assay type: cell-based, Staphylococcus aureus; conditions: for MIC: Staphylococcus aureus, MRSA, read-out: MIC (MRSA)
Procedure: (§1) To determine the MIC of polyamine compounds, the protocol described herein was used.
In brief, a 0.5 McFarland of each bacterial isolate was made. A 0.5 McFarland is a measure of turbidity in a liquid sample that contains approximately 1×10^∧8 CFU/mL. The 0.5 McFarland standard was diluted in cation adjusted Mueller Hinton Broth (CAMHB), and 50 μL of broth were added to a well of a 96-well plate. In addition, 50 μL of CAMHB that contained a desired concentration of antimicrobial were also added to the well for a final volume of 100 μL and a final concentration of approximately 5×10^4 CFU/well (which equated to approximately 5×10^5 CFU/mL). Each well contained a desired amount of polyamine compound in order to experimentally determine the MIC. Each 96-well plate was incubated at 37° C. for 24 hours. The contents of each well were plated on tryptic soy agar (TSA). TSA plates were incubated for 37° C. for 24 hours after which the number of CFU were counted and used to calculate the CFU/mL that remained after exposure to varying concentrations of compound. This procedure was repeated n=8 times for each concentration of antimicrobial. […]

P. aeruginosa = assay: as above; assay type: cell-based, Pseudomonas aeruginosa; conditions: for MIC: Pseudomonas aeruginosa
Procedure: as §1
In brief, a 0.5 McFarland of each bacterial isolate was made. A 0.5 McFarland is a measure of turbidity in a liquid sample that contains approximately 1×10^∧8 CFU/mL. The 0.5 McFarland standard was diluted in cation adjusted Mueller Hinton Broth (CAMHB), and 50 μL of broth were added to a well of a 96-well plate. In addition, 50 μL of CAMHB that contained a desired concentration of antimicrobial were also added to the well for a final volume of 100 μL and a final concentration of approximately 5×10^4 CFU/well (which equated to approximately 5×10^5 CFU/mL). Each well contained a desired amount of polyamine compound in order to experimentally determine the MIC. Each 96-well plate was incubated at 37° C. for 24 hours. The contents of each well were plated on tryptic soy agar (TSA). TSA plates were incubated for 37° C. for 24 hours after which the number of CFU were counted and used to calculate the CFU/mL that remained after exposure to varying concentrations of compound. This procedure was repeated n=8 times for each concentration of antimicrobial.

[1] = Table 5, read-out: MIC (P. aeruginosa)
[2] = read-out: MIC (P. aeruginosa), Table 5

Compound	MIC (MRSA; Table 5) [µM]	MIC (P. aeruginosa; [1]) [µM]	other results
CC(C)CNCCCNCCCNCc1cccc(CNCCCNCCCNCC(C)C)c1 [CZ-108, N^1,N^1′-(1,3-phenylenebis(methylene))bis(N^3-(3-(isobutylamino)propyl)propane-1,3-diamine)]	< 50	< 50	
CC(C)CNCCCOc1cc(CNCCCNCCCN)cc(CNCCCNCCCN)c1 [CZ-107, N^1,N^1′-((5-(3-(isoButylammonio)propoxy)-1,3-phenylene)bis(methylene))-bis(N^3-(3-ammoniopropyl)propane-1,3-diaminium) chloride]			MIC (MRSA): < 50 µM; MIC (P. aeruginosa; [2]): 50 to 100 µM
CC(C)CNCCCCCCCCCCCCNCc1cc(CNCCCCCCCCCCCCNCC(C)C)cc(-c2ccccc2)c1 [CZ-116, N^1,N^1′-([1,1′-biphenyl]-3,5-diylbis(methylene))bis(N^12-isobutyldodecane-1,12-diamine)]	< 50	< 50	
CC(C)CNCCCNCCCNCc1cc(CNCCCNCCCNCC(C)C)cc(OC2CCCCC2)c1 [CZ-104, N^1,N^1′-((5-(cyclohexyloxy)-1,3-phenylene)bis(methylene))bis(N^3-(3-(isobutylamino)propyl)propane-1,3-diamine)]	< 50		MIC (P. aeruginosa) (P. aeruginosa; Table 5): ++ to +++
N^1,N^1′,N^1″-((4′-(trifluoromethyl)-[1,1′-biphenyl]-3,3′,5-triyl)tris(methylene))tris(N3-(3-aminopropyl)propane-1,3-diamine), hydrochloride salt [CZ-69]			MIC (MRSA) (MRSA; Table 5): +++ (+++ = 50 μM > MIC. MIC results of “>n μM” or “<n μM” will also be designated as +++ if n <50.); MIC (P. aeruginosa) (P. aeruginosa; Table 5): +++ (+++ = 50 μM > MIC. MIC results of “>n μM” or “<n μM” will also be designated as +++ if n <50.)
NCCCNCCCNCc1cc(CNCCCNCCCN)cc(Oc2ccccc2)c1 [CZ-74, N^1,N^1′-((5-phenoxy-1,3-phenylene)bis(methylene))bis(N^3-(3-aminopropyl)propane-1,3-diamine), hydrochloride salt]			MIC (MRSA): < 50 µM; MIC (P. aeruginosa; [2]): < 50 µM
NCCCNCCCNCc1cccc(CNCCCNCCCN)c1 [CZ-42]		50 to 100 (≈ 18.2 to 36.5 µg/mL)	MIC (MRSA) (MRSA; Table 5): ++ (++ = 100 μM ≥ MIC ≥ 50 μM. MIC results of “>n μM” or “<n μM” will also be designated as ++ if 100 ≥ n ≥ 50.)
CCC(CC)COc1cc(CNCCCNCCCNCC(C)C)cc(CNCCCNCCCNCC(C)C)c1 [CZ-91, N^1,N^1′-((5-(2-ethylbutoxy)-1,3-phenylene)bis(methylene))bis(N^3-(3-(isobutylammonio)propyl)propane-1,3-diaminium) chloride]			MIC (MRSA): < 50 µM; MIC (P. aeruginosa; [2]): < 50 µM
CC(C)CNCCCNCC(C)(C)CNCc1cc(CNCC(C)(C)CNCCCNCC(C)C)cc(-c2ccccc2)c1 [CZ-112, N^1,N^1′-([1,1′-biphenyl]-3,5-diylbis(methylene))bis(N^3-(3-(isobutylamino)propyl)-2,2-dimethylpropane-1,3-diamine)]	< 50	< 50	

The next lines start with results.

MIC (MRSA; Table 5) [µM]	MIC (P. aeruginosa; [1]) [µM]	Compound	other results
< 50		CC(C)CNCCCNCCCNCc1cccc(-c2cc(CNCCCNCCCNCC(C)C)cc(CNCCCNCCCNCC(C)C)c2)c1 [CZ-99, N^1,N^1′,N^1″-([1,1′-biphenyl]-3,3′,5-triyltris(methylene))tris(N^3-(3-(isobutylamino)propyl)propane-1,3-diamine)]	Results Pass/Fail (L-929 cells (ATCC CCL-1); 25 μg/mL): Pass (receives a passing score (Pass) if the reactivity grade is not greater than grade 2 or a mild reactivity); Results Pass/Fail (L-929 cells (ATCC CCL-1); dilution 1:2 of 25 μg/mL): Pass (receives a passing score (Pass) if the reactivity grade is not greater than grade 2 or a mild reactivity); Results Pass/Fail (L-929 cells (ATCC CCL-1); dilution 1:4 of 25 μg/mL): Pass (receives a passing score (Pass) if the reactivity grade is not greater than grade 2 or a mild reactivity); Results Pass/Fail (L-929 cells (ATCC CCL-1); dilution 1:8 of 25 μg/mL): Pass (receives a passing score (Pass) if the reactivity grade is not greater than grade 2 or a mild reactivity); Results Pass/Fail (L-929 cells (ATCC CCL-1); dilution 1:16 of 25 μg/mL): Pass (receives a passing score (Pass) if the reactivity grade is not greater than grade 2 or a mild reactivity); MIC (P. aeruginosa) (P. aeruginosa; Table 5): ++ to +++
< 50	< 50	CC(C)CNCCCNCCCNCc1cc(Br)cc(CNCCCNCCCNCC(C)C)c1 [CZ-109, N^1,N^1′-((5-bromo-1,3-phenylene)bis(methylene))bis(N^3-(3-(isobutylamino)propyl)propane-1,3-diamine)]	
< 50	< 50	CCCCCCCCNCCCNCCCNCc1cc(CNCCCNCCCNCCCCCCCC)cc(-c2ccccc2)c1 [CZ-92, N^1,N^1′-([1,1′-biphenyl]-3,5-diylbis(methylene))bis(N^3-(3-(octylamino)propyl)-propane-1,3-diamine)]	Results Pass/Fail (L-929 cells (ATCC CCL-1); 25 μg/mL): Fail (a numerical grade greater than 2 is considered a cytotoxic effect, or a failing score (Fail)); Results Pass/Fail (L-929 cells (ATCC CCL-1); dilution 1:2 of 25 μg/mL): Fail (a numerical grade greater than 2 is considered a cytotoxic effect, or a failing score (Fail)); Results Pass/Fail (L-929 cells (ATCC CCL-1); dilution 1:4 of 25 μg/mL): Fail (a numerical grade greater than 2 is considered a cytotoxic effect, or a failing score (Fail)); Results Pass/Fail (L-929 cells (ATCC CCL-1); dilution 1:8 of 25 μg/mL): Fail (a numerical grade greater than 2 is considered a cytotoxic effect, or a failing score (Fail)); Results Pass/Fail (L-929 cells (ATCC CCL-1); dilution 1:16 of 25 μg/mL): Pass (receives a passing score (Pass) if the reactivity grade is not greater than grade 2 or a mild reactivity)
< 50	50 to 100 (≈ 23.1 to 46.3 µg/mL)	NCCCNCCCNCc1cc(CNCCCNCCCN)cc(OC2CCCCC2)c1 [CZ-105]	
< 50	< 50	NCCCNCCCNCc1cc(O)cc(CNCCCNCCCN)c1 [CZ-87, 3,5-bis(((3-((3-aminopropyl)amino)propyl)amino)methyl)phenol]	
< 50	< 50	CC(C)Oc1cc(CNCCCNCCCN)cc(CNCCCNCCCN)c1 [CZ-93, N^1,N^1′-((5-isopropoxy-1,3-phenylene)bis(methylene))bis(N^3-(3-aminopropyl)propane-1,3-diamine)]	
< 50	< 50	c1cc(CNCCCNCCCNCC2CCCCC2)cc(CNCCCNCCCNCC2CCCCC2)c1 [CZ-97, N^1,N^1′-(1,3-phenylenebis(methylene))bis(N^3-(3-((cyclohexylmethyl)-amino)propyl)propane-1,3-diamine)]	
< 50	50 to 100 (≈ 27.8 to 55.7 µg/mL)	CC(C)CNCCCNCCCNCc1cc(CNCCCNCCCNCC(C)C)cc(-c2cnn(C)c2)c1 [CZ-102, N^1,N^1′-((5-(1-methyl-1H-pyrazol-4-yl)-1,3-phenylene)bis(methylene))bis(N3-(3-(isobutylamino)propyl)propane-1,3-diamine)]	
< 50	< 50	CC(C)CNCCCNCCCCNCc1cc(CNCCCCNCCCNCC(C)C)cc(-c2ccccc2)c1 [CZ-111, N^1,N^1′-([1,1′-biphenyl]-3,5-diylbis(methylene))bis(N^4-(3-(isobutylamino)propyl)butane-1,4-diamine)]	
< 50	< 50	c1ccc(CNCCCNCCCNCc2cc(CNCCCNCCCNCc3ccccc3)cc(-c3ccccc3)c2)cc1 [CZ-94, N^1,N^1′-([1,1′-biphenyl]-3,5-diylbis(methylene))bis(N^3-(3-(benzylamino)propyl)propane-1,3-diamine)]	
